The values that follow come from patent publication US20250171423A1, “PHARMACEUTICAL COMPOUNDS FOR THE TREATMENT OF COMPLEMENT MEDIATED DISORDERS” (Achillion Pharmaceuticals, Inc., priority 2020, published 2025).

Counter-ions that a name gives are not always drawn.

This assay deals with T1, Human complement C1s enzyme (Homo sapiens, UniProt P09871).
T1 construct: purified from human serum, Complement Technology, Inc; purchased Complement Technology, Inc; host or cells: human serum
T1 sequence (P09871 438-688 limits assumed): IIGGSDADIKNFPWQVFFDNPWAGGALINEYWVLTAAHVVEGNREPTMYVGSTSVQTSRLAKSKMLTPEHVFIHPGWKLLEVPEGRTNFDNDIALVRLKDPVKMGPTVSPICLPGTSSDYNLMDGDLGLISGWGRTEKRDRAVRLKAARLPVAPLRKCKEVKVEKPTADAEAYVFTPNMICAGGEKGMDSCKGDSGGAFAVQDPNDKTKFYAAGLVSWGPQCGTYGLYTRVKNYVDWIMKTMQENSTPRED
T1 sequence (P09871 16-437 partner limits assumed): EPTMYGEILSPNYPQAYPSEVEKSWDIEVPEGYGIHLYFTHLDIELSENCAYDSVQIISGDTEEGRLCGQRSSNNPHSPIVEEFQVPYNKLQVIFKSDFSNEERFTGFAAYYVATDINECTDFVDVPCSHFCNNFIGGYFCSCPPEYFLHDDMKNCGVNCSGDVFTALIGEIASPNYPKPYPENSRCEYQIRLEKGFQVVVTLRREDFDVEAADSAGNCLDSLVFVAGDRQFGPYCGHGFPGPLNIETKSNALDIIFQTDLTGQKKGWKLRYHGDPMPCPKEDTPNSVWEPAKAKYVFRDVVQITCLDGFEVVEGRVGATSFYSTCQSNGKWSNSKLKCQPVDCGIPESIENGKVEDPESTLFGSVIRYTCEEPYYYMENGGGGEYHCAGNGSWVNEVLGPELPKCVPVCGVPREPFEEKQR
Kind of assay: Human C1s Enzyme Assay. Type of assay: biochemical. Conditions: human C1s 1.16 nM, 5 min preincubation, substrate Z-L-Lys-SBzl 100 μM, A405; read-out: C1s Protease Activity. Summed up:
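C1s purified from human serum (1.16 nM final) was preincubated with compound for 5 min at room temperature in 50 mM Tris, 1 M NaCl, pH 7.5. Z-L-Lys-SBzl and DTNB were then added at 100 μM each, and A405 was followed for 30 min. IC50 came from nonlinear regression of reaction rates.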
In the case of `C[S@](=N)(=O)[C@@H]1C[C@@H](C(=O)NCc2cc(C(=N)N)cs2)N(C(=O)CNC(=O)c2ccc(Oc3ccccc3)cc2)C1` [Compound 68, (2S,4R)-N-((4-carbamimidoylthiophen-2-yl)methyl)-4-((S)-S-methylsulfonimidoyl)-1-((4-phenoxybenzoyl)glycyl)pyrrolidine-2-carboxamide], the IC50 is below 100 nM.
The same measure for `C[C@@]12C[C@@H]1N(C(=O)CNC(=O)CCCOc1cccc3ccccc13)[C@H](C(=O)NCc1cc(C(=N)N)cs1)C2` [Compound 207, (1S,3S,5S)-N-((4-carbamimidoylthiophen-2-yl)methyl)-5-methyl-2-((4-(naphthalen-1-yloxy)butanoyl)glycyl)-2-azabicyclo[3.1.0]hexane-3-carboxamide]: below 100 nM.
The same measure for `C[C@@]12C[C@@H]1N(C(=O)CNC(=O)CCCOc1ccccc1)[C@H](C(=O)NCc1cc(C(=N)N)cs1)C2` [Compound 44, (1S,3S,5S)-N-((4-carbamimidoylthiophen-2-yl)methyl)-5-methyl-2-((4-phenoxy-butanoyl)glycyl)-2-azabicyclo[3.1.0]hexane-3-carboxamide]: below 100 nM; for `CO/N=C(\N)c1csc(CNC(=O)[C@@H]2C[C@]3(C)C[C@@H]3N2C(=O)CNC(=O)c2ccc(Oc3ccccc3)cc2)c1` [Compound 6, (1S,3S,5S)-N-((4-((Z)-N′-methoxycarbamimidoyl)thiophen-2-yl)methyl)-5-methyl-2-((4-phenoxybenzoyl)glycyl)-2-azabicyclo[3.1.0]hexane-3-carboxamide]: above 1000 nM.
Under `C[C@@]12C[C@@H]1N(C(=O)CNC(=O)c1ccc(Oc3ccc(S(C)(=N)=O)cc3)cc1)[C@H](C(=O)NCc1cc(C(=N)N)cs1)C2` (stereo partly drawn) [Compound 3, (1S,3S,5S)-N-((4-carbamimidoylthiophen-2-yl)methyl)-5-methyl-2-((4-(4-(S-methyl-sulfonimidoyl)phenoxy)benzoyl)glycyl)-2-azabicyclo[3.1.0]hexane-3-carboxamide] stands below 100 nM.
`N=C(N)c1csc(CNC(=O)C23CCC(CC2)N3C(=O)CNC(=O)c2ccc(Oc3ccccc3)cc2)c1` [Compound 16, N-((4-carbamimidoylthiophen-2-yl)methyl)-7-((4-phenoxybenzoyl)glycyl)-7-azabicyclo[2.2.1]heptane-1-carboxamide]: the IC50 lay in the range of 100 to 1000 nM.
As to `C[C@@]12C[C@@H]1N(C(=O)CNC(=O)c1ccc(Oc3cccnc3)cn1)[C@H](C(=O)NCc1cc(C(=N)N)cs1)C2` [Compound 162, (1S,3S,5S)-N-((4-carbamimidoylthiophen-2-yl)methyl)-5-methyl-2-((5-(pyridin-3-yloxy)picolinoyl)glycyl)-2-azabicyclo[3.1.0]hexane-3-carboxamide], the IC50 is below 100 nM.
The same measure for `CS(=O)(=O)[C@@H]1C[C@@H](C(=O)NCc2cc(C(=N)N)cs2)N(C(=O)CNC(=O)c2ccc(Oc3ccccc3)cc2)C1` [Compound 46, (2S,4R)-N-((4-carbamimidoylthiophen-2-yl)methyl)-4-(methylsulfonyl)-1-((4-phenoxybenzoyl)glycyl)pyrrolidine-2-carboxamide]: below 100 nM.
Under `C[C@@H](NC(=O)[C@@H]1CC2(CN1C(=O)CNC(=O)CCCOc1ccccc1)OCCO2)c1cc(C(=N)N)cs1` [Compound 115, (S)-N-((R)-1-(4-carbamimidoylthiophen-2-yl)ethyl)-7-((4-phenoxybutanoyl)glycyl)-1,4-dioxa-7-azaspiro[4.4]nonane-8-carboxamide] stands below 100 nM; under `C[C@H](O)[C@H](O)[C@@H](O)[C@@H](O)CNCC(=O)N1[C@H]2C[C@@]2(C)C[C@H]1C(=O)NCc1nc(C(=N)N)cs1` [Compound 78, (1S,3S,5S)-N-((4-carbamimidoylthiazol-2-yl)methyl)-5-methyl-2-(((2S,3S,4S,5S)-2,3,4,5-tetrahydroxyhexyl)glycyl)-2-azabicyclo[3.1.0]hexane-3-carboxamide], above 1000 nM.
The same measure for `N=C(N)c1csc(CNC(=O)[C@@H]2C[C@@H](OC3CC3)CN2C(=O)CNC(=O)c2ccc(Oc3ccccc3)cc2)c1` [Compound 110, (2S,4R)-N-((4-carbamimidoylthiophen-2-yl)methyl)-4-cyclopropoxy-1-((4-phenoxy-benzoyl)glycyl)pyrrolidine-2-carboxamide]: below 100 nM.
`C[C@@H](NC(=O)[C@@H]1C[C@H](C2CCCCC2)CN1C(=O)CNC(=O)c1ccc(Oc2ccccc2)cc1)c1cc(C(=N)N)cs1` [Compound 241, (2S,4R)-N-((R)-1-(4-carbamimidoylthiophen-2-yl)ethyl)-4-cyclohexyl-1-((4-phenoxybenzoyl)glycyl)pyrrolidine-2-carboxamide]: the IC50 was below 100 nM.
The same measure for `C[C@@]12C[C@@H]1N(C(=O)CN1CCc3cc(Oc4ccccc4)ccc3C1=O)[C@H](C(=O)NCc1cc(C(=N)N)cs1)C2` [Compound 161, (1S,3S,5S)-N-((4-carbamimidoylthiophen-2-yl)methyl)-5-methyl-2-(2-(1-oxo-6-phenoxy-3,4-dihydroisoquinolin-2(1H)-yl)acetyl)-2-azabicyclo[3.1.0]hexane-3-carboxamide]: below 100 nM; for `COC[C@H]1C[C@@H](C(=O)N[C@H](C)c2cc(C(=N)N)cs2)N(C(=O)CNC(=O)c2ccc(Oc3ccccc3)cc2)C1` (relative stereo) [Compound 252, (2S,4S*)-N-((R)-1-(4-carbamimidoylthiophen-2-yl)ethyl)-4-(methoxymethyl)-1-((4-phenoxybenzoyl)glycyl)pyrrolidine-2-carboxamide]: below 100 nM.
The same measure for `COC[C@H]1C[C@@H](C(=O)NCc2cc(C(=N)N)cs2)N(C(=O)CNC(=O)c2ccc(Oc3ccccc3)cc2)C1` [Compound 14, (2S,4S)-N-((4-carbamimidoylthiophen-2-yl)methyl)-4-(methoxymethyl)-1-((4-phenoxybenzoyl)glycyl)pyrrolidine-2-carboxamide hydrochloride]: below 100 nM; for `C[C@@]12C[C@@H]1N(C(=O)CNC(=O)c1ccc(Oc3ccccc3)cc1)[C@H](C(=O)NCc1cc(C(N)=O)cs1)C2` [Compound 8, (1S,3S,5S)-N-((4-carbamoylthiophen-2-yl)methyl)-5-methyl-2-((4-phenoxybenzoyl)-glycyl)-2-azabicyclo[3.1.0]hexane-3-carboxamide]: above 1000 nM; for `N=C(N)c1csc(CNC(=O)[C@@H]2C[C@@H](Cc3ccc(C(F)(F)F)cc3)CN2C(=O)CNC(=O)c2ccc(Oc3ccccc3)cc2)c1` [Compound 17, (2S,4R)-N-((4-carbamimidoylthiophen-2-yl)methyl)-1-((4-phenoxybenzoyl)glycyl)-4-(4-(trifluoromethyl)benzyl)pyrrolidine-2-carboxamide]: below 100 nM.
The same measure for `C[C@@H](NC(=O)[C@@H]1C[C@]2(C)C[C@@H]2N1C(=O)CNC(=O)CCCOc1ccc(F)cc1)c1cc(C(=N)N)cs1` [Compound 121, (1S,3S,5S)-N-((R)-1-(4-carbamimidoylthiophen-2-yl)ethyl)-2-((4-(4-fluorophenoxy)butanoyl)glycyl)-5-methyl-2-azabicyclo[3.1.0]hexane-3-carboxamide]: 100 to 1000 nM.
Regarding `N=C(N)c1csc(CNC(=O)[C@@H]2C[C@H](C3CCCCC3)CN2C(=O)CNC(=O)CCCOc2ccccc2)c1` [Compound 242, (2S,4R)-N-((4-carbamimidoylthiophen-2-yl)methyl)-4-cyclohexyl-1-((4-phenoxybutanoyl)glycyl)pyrrolidine-2-carboxamide], the IC50 was below 100 nM.
The same measure for `N=C(N)c1csc(CNC(=O)[C@@H]2C[C@@H](C(F)F)CN2C(=O)CNC(=O)c2ccc(Oc3ccccc3)cc2)c1` [Compound 151, (2S,4R)-N-((4-carbamimidoylthiophen-2-yl)methyl)-4-(difluoromethyl)-1-((4-phenoxybenzoyl)glycyl)pyrrolidine-2-carboxamide]: below 100 nM; for `CC1(C)SCN(C(=O)CNC(=O)CCCOc2ccccc2)[C@@H]1C(=O)NCc1cc(C(=N)N)cs1` [Compound 124, (R)-N-((4-carbamimidoylthiophen-2-yl)methyl)-5,5-dimethyl-3-((4-phenoxybutanoyl)glycyl)thiazolidine-4-carboxamide]: 100 to 1000 nM; for `C[C@H](NC(=O)[C@@H]1C[C@]2(C)C[C@@H]2N1C(=O)CNC(=O)c1ccc(Oc2ccccc2)cc1)c1cc(-c2ncc[nH]2)cs1` [Compound 254, (1S,3S,5S)-N-((S)-1-(4-(1H-imidazol-2-yl)thiophen-2-yl)ethyl)-5-methyl-2-((4-phenoxybenzoyl)glycyl)-2-azabicyclo[3.1.0]hexane-3-carboxamide]: above 1000 nM.
